Test results reported in patent publication US7183075B2, “Purified and isolated potassium-chloride cotransporter nucleic acids and polypeptides and therapeutic and screening methods using same” (Vanderbilt University, priority 2000, dated 2007).
Blank lines part the entries; values can stand above or below the compound they belong to.

Tests used:
mKCC4 = molecular target: T1, mKCC4 (Mus musculus, UniProt Q9WVL3); experiment: 86Rb+ uptake (K+-Cl- cotransport) in Xenopus oocytes injected with mKCC4 cRNA; format: cell-based; details: 10 mM potassium salt of anion substitute vs 10 mM KCl reference; hypotonic
T1 construct: a full-length mKCC4 cDNA was used as a standard in the Xenopus expression vector pGEMHE; expressed in transfected cells; host or cells: Xenopus laevis oocytes injected with cRNA (pGEMHE, T7 transcript)
T1 sequence (Q9WVL3 1-1083 L71X/L155X/L467X/L586X/L639X/L1023X): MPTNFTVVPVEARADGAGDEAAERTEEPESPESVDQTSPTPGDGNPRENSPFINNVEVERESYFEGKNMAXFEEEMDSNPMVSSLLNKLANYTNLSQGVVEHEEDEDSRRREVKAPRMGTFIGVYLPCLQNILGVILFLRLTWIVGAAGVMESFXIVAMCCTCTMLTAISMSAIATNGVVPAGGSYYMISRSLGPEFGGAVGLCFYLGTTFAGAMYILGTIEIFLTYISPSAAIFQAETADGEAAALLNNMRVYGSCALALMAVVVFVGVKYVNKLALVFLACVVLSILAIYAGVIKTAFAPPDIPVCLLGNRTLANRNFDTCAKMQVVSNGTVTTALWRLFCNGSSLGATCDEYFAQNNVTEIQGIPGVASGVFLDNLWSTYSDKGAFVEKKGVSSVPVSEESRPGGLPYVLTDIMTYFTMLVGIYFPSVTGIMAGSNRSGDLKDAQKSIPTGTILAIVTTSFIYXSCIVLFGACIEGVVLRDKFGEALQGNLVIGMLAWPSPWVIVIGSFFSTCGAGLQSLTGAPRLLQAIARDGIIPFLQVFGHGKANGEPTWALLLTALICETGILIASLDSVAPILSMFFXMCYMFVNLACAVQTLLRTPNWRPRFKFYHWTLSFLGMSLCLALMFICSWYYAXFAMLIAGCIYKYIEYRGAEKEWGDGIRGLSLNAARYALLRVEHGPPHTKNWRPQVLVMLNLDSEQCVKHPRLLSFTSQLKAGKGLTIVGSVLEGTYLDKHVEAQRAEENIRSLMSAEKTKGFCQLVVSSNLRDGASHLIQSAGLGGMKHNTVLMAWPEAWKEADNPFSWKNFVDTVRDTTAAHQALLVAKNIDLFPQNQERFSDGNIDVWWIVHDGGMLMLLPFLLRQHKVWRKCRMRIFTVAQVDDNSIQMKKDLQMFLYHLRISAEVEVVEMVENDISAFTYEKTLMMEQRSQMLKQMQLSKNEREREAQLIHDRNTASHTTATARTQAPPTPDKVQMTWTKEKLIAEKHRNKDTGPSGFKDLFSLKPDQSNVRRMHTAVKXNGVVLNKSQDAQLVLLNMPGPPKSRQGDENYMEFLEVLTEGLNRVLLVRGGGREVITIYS
Method: Oocytes were surgically collected from anesthetized female Xenopus adults under 0.17% tricaine and incubated for 1 hour with vigorous shaking in frog Ringer ND96 (96 mM sodium chloride, 2 mM potassium chloride, 1.8 mM calcium chloride, 1.0 mM magnesium chloride, and 5 mM Hepes/Tris, pH 7.4) in the presence of 2 mg/ml collagenase B. Oocytes were then washed four times in ND96, manually defolliculated, and incubated overnight in ND96 at 18° C. On the next day, defolliculated stage V–VI oocytes were injected with 50 nl of water or a solution containing cRNA at a concentration of 0.25–0.5 μg/μl (25 ng/oocyte). Oocytes were incubated at 17–18° C. in ND96 (96 mM sodium chloride, 2 mM potassium chloride, 1.8 mM calcium chloride, 1.0 mM magnesium chloride, and 5 mM Hepes/Tris, pH 7.4), supplemented with 2.5 mM sodium pyruvate and 5 mg/100 ml gentamicin, for 3–4 days. The incubation medium was changed every 24 hours. On the day of the experiment, oocytes were switched to Cl^−-free ND96 (96 mM Na^+ Na^+ isethionate, 2 mM K^+ gluconate, 6 mM Ca^2+ gluconate, 1 mM Mg^2+ gluconate, 5 mM Hepes, 2.5 mM sodium pyruvate, 5 mg/100 ml gentamicin, pH 7.4) for 2 hours prior to the uptake assay.
For functional expression and in vitro translation, a full-length mKCC4 cDNA was used as a standard in the Xenopus expression vector pGEMHE (Liman et al. (1992) Neuron 9:861–871). The resulting construct contains nucleotides 55–3812 of mKCC4 (SEQ ID NO:13). For functional comparison with mKCC4, a full-length rabbit KCC1 cDNA was subcloned into pGEMHE. […] […] Transcription product integrity was confirmed on agarose gels, and concentration was determined by absorbance reading at 260 nm (DU 640 available from Beckman of Fullerton, Calif.).
K^+—Cl^− cotransport was assessed by measuring tracer ^86Rb^+ uptake (NEN® Life Science Products of Boston, Mass.) in experimental groups of at least 15 oocytes. […] All uptake solutions also contained 1.8 mM CaCl2, 1 mM MgCl2, 5 mM Hepes, pH 7.4, and were supplemented with 1 mM ouabain and […] ^86Rb^+. Isotonic conditions were generated by supplementing the same solutions with 3.5 g/100 ml sucrose to reach isosmolar conditions for oocytes (˜210 mOsm/kg). Ouabain was added to prevent ^86Rb^+ uptake via the Na^+—K^+-ATPase. The absence of extracellular Na^+ and the hypotonicity of the uptake medium prevented ^86Rb^+ uptake via the endogenous Na^+—K^+-2Cl^− cotransporter that is present in oocytes (Gamba et al. (1994) J Biol Chem 269:17713–17722).
All uptake assays were performed at 32° C. At the end of the uptake period, oocytes were washed five times in ice-cold uptake solution without isotope to remove extracellular fluid tracer. Oocytes were dissolved in 10% SDS, and tracer activity was determined for each oocyte by β-scintillation counting.
To determine the ion transport kinetics of KCC4 and KCC1, ^86Rb^+ uptake experiments were performed in variable concentrations of K^+ and Cl^−. […]

[1] = system: KCC2^+/− heterozygous and wild type mice; experiment: PTZ seizure induction in wild type and KCC2+/- mice; format: in vivo, mouse; details: daily 60 mg/kg PTZ
Method: A reduced threshold for induction of seizure activity was also observed in KCC2^+/− heterozygous mice. Seizures were induced in wild type and litter-matched KCC2^+/− mice by daily injections of 60 mg/kg pentylenetetrazole (PTZ), a blocker of the GABAA receptor. Animal behavior was observed during a one-hour interval following PTZ injection, and the severity of seizure induction was scored according to the following indicators: score=0, absence of seizure acitivity; score=1, ear and facial twitching; score=2, myoclonic body jerks; score=3, clonic forelimb convulsions […]; score=5, death. Mice assigned a score of 3, 4, or 5 were removed from the group. FIG. 34 summarizes the number of mice assigned a score of 1 or 2 as a function of time. A significant difference between wild type and KCC2^+/− heterozygous mice was observed, corresponding to an approximately 2-fold increase in the susceptibility of KCC2^+/− heterozygous mice to seizure activity.

hKCC3a = molecular target: T2, hKCC3a (Homo sapiens, UniProt Q9UHW9, L346X/L35X/L789X); experiment: 86Rb+ uptake (K+-Cl- cotransport) in Xenopus oocytes injected with hKCC3a cRNA; format: cell-based
T2 construct: A full-length hKCC3a construct has also been generated for functional expression; expressed in transfected cells; host or cells: Xenopus laevis oocytes injected with cRNA
T2 sequence (Q9UHW9 1-1150 L35X/L346X/L789X): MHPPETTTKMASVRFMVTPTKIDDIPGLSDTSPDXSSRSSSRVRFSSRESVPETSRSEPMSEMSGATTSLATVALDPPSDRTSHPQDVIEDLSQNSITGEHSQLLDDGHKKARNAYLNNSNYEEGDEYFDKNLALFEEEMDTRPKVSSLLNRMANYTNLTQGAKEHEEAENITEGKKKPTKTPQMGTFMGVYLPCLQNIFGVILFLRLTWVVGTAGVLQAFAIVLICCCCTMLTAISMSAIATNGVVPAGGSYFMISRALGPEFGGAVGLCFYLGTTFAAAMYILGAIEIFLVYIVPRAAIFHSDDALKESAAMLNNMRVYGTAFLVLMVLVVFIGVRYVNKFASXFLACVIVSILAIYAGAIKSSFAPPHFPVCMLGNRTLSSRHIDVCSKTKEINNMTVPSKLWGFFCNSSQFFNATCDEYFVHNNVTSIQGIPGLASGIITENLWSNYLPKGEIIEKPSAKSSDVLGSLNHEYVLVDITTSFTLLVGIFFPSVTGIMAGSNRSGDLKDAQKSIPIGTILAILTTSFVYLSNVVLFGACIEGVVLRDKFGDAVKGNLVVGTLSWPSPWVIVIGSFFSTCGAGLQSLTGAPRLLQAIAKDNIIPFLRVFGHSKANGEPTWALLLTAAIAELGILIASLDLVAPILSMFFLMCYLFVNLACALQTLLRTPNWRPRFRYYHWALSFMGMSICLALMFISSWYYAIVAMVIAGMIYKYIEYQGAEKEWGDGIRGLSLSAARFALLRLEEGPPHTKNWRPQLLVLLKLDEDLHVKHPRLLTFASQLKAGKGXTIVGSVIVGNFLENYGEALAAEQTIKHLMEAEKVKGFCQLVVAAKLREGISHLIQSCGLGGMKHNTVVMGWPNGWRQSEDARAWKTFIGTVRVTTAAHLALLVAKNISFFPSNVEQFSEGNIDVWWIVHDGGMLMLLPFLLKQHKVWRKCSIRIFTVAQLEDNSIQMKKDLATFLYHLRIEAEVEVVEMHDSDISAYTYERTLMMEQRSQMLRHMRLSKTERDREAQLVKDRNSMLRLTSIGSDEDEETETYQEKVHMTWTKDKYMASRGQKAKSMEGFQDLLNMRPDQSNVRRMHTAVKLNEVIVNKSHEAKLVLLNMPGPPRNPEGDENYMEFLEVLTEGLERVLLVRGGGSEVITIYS

[2] = system: human red cell K^+—Cl^− cotransport; details: ML-7; physiological osmolality; cited from earlier work

Compound: N#C[S-].[K+] [KSCN]
86Rb+ influx in the presence of other anions, percentage of KCC4 function (mKCC4): did not support transport

Compound: O=C([O-])[C@H](O)[C@@H](O)[C@H](O)[C@H](O)CO.[K+] [potassium gluconate]
86Rb+ influx in the presence of other anions, percentage of KCC4 function (mKCC4): did not support transport

86Rb+ influx in the presence of other anions, percentage of KCC4 function (mKCC4): 22±5.9%
Compound: O=P([O-])(O)O.[K+] [KH2PO4]

Compound: C1CCc2nnnn2CC1 [PTZ, pentylenetetrazole]
percentage of deaths in response to PTZ injection ([1]; KCC2+/− heterozygous mice): Approximately 35%
percentage of deaths in response to PTZ injection ([1]; wild type mice): < 5%

86Rb+ influx in the presence of other anions, percentage of KCC4 function (mKCC4): 58±9%
Compound: [Br-].[K+] [KBr]

86Rb+ influx in the presence of other anions, percentage of KCC4 function (mKCC4): 17±3.8%
Compound: [I-].[K+] [KI]

K+-Cl- cotransport (86Rb+ uptake) by KCC3a in the presence of ML-7 (hKCC3a; 100 μM ML-7, 160 mOsm/kg): 1698±298 pmol/oocyte/hour
effect on hKCC3a K+-Cl- cotransport (hKCC3a; ML-7, 180 mOsm/kg): modest activation
effect on K+-Cl- cotransport (hKCC3a; ML-7, isotonic conditions): no effect
Compound: O=S(=O)(c1cccc2c(I)cccc12)N1CCCNCC1 [ML-7]
effect on human red cell K+-Cl- cotransport [2]: modest activation
